Measured values as given in US20040057926A1, “Modulation of the immune response through the manipulation of arginine levels” (LSU Medical Center, priority 2002, published 2004).

Experiments:
Jurkat cells [1] = assay: Proliferation of Jurkat cells with H. pylori sonicate (3H-thymidine); format: cell-based; conditions: NOHA 10 μg/ml, L-arginine 2 mM; sonicate 50 μg/ml
Protocol: Unless otherwise stated, the cells were always cultured in RPMI 1640 (Gibco Life-Technologies; Rockville, Md.) which contains 1104 μM L-arginine, 2.5 mM of L-glutamine, (Gibco), 25 mM HEPES (Gibco), 100 μg/ml of penicillin/streptomycin (Gibco), and 10% heat inactivated FCS (Hyclone). Jurkat cells were maintained at 0.5×10^6/ml. For proliferation assays Jurkat cells or peripheral blood mononuclear cells (PBMC) were placed at 2×10^5/well in round-bottom 96-well plates (Corning; Corning, N.Y.) and incubated for 2 h with increasing concentrations of the H. pylori sonicate ranging from 0.01 μg/ml to 100 μg/ml. After this, 30 ng/ml of anti-CD3 (Ortho Diagnostics, Raritan, N.J.) and 100 ng/ml of anti-CD28 (Becton-Dickinson Biosciences; Palo Alto, Calif.) were added to the PBMC. Jurkat cells were incubated for an additional 24 h and the PBMC for 48 h. […] The cells were collected onto glass fiber filters (Unifilter GF/B; Packard Bioscience; Meriden, Conn.) and radioactivity was counted in a Beta counter (Microplate Scintillation and Luminiscence Counter, TopCount, Packard).
[…] After addition of the sonicate plus NOHA or sonicate plus L-arginine mixture to the Jurkat cells, 1.0 μCi of ^3H-thymidine (NEN) was added per well, the cells were incubated at 37° C. for 18 h, harvested onto filters and counted in a β-counter (Packard).

[2] = tested on: peritoneal macrophages (PM); assay: Extra-cellular L-Arg concentration in supernatants of peritoneal macrophages (HPLC); format: cell-based, mice; conditions: for extra-cellular L-Arg levels (mean of three experiments): L-Arg 2 mM, NOHA 100 μM, Nor-NOHA 50 μM; for rapid decrease in the extra-cellular levels of L-Arg: PM stimulated with IL-4+IL-13
Protocol: Jurkat T-cells, a CD4^+ cell line (Clone E6-1) (ATCC, Manassas, Va.) and normal stimulated T-cells were used to test the effect of ASE I, ASE II and iNOS produced by PM on CD3ζ expression. Six-week old female C57BL/6 mice were used to isolate peritoneal macrophages (PM). Briefly, 3 ml of thioglycolate-brewer (Becton Dickinson, San Jose, Calif.) were injected into the peritoneal cavity of mice for 3 days. Mice were then sacrificed and PM isolated by washing the peritoneum with HBSS. After 2 days of culture in RPMI with 4% fetal bovine serum, unattached cells were washed off and attached cells were used in co-cultures with Jurkat or normal T-cells.
(§1) PM were cultured in 6 well plates in RPMI containing 150 μM L-Arg and stimulated with murine rIL-4 (50 U/ml) and murine rIL-13 (50 ng/ml), or murine rIFN-γ (100 U/ml) for 24 hours. Then 1×10^6 normal T-cells stimulated with anti-CD3 plus anti-CD28 or 1×10^6 Jurkat cells, were cultured in the top chamber of a transwell system having 0.4 μm pores (Falcon, Franklin lakes, N.J.). CD3ζ expression was measured in Jurkat cells or T lymphocytes at different time points. PM were detached using trypsin/EDTA and the expression of protein and RNA for CAT-2B, ASE I, ASE II and iNOS was tested by western blot and northern blot respectively. Cytoplasmic extracts from PM were used to test ASE activity. Supernatants from stimulated PM were used to measure NO production using the Griess reagent method (Molecular Probes, Eugene, Oreg.). In addition, the extra-cellular concentration of L-Arg was tested in supernatants by HPLC (Dr. Gu Yao Wu laboratory, University of Texas) as described previously. O'Quinn, P. R., D. A. Knabe, and G. Wu. 2002. Arginine catabolism in lactating porcine mammary tissue. J Anim Sci. 80:467-474.

CAT-3 = CAT-3 (Homo sapiens, UniProt Q8WY07); conditions: read-out: Km for L-Arg; cited from earlier work
Chain of CAT-3 (Q8WY07 whole entry, species assumed): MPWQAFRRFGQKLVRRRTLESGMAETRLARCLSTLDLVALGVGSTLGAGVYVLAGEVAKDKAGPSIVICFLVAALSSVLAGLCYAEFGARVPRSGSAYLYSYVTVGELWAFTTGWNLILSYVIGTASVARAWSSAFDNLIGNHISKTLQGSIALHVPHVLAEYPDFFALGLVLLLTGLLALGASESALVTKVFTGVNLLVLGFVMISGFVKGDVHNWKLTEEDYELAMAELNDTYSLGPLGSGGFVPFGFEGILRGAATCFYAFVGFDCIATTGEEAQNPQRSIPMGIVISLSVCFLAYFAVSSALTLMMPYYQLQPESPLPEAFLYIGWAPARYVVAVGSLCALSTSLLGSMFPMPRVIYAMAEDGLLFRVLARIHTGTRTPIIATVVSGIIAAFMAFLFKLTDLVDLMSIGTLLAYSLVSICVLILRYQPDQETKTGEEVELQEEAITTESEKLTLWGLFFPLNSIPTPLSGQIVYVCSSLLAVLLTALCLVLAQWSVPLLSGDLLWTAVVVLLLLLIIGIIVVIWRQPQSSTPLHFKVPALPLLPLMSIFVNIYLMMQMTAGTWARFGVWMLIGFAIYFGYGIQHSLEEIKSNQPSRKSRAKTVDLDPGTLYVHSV

Jurkat cells [3] = assay: Co-culture in transwells of stimulated PM and Jurkat cells, CD3ζ expression; format: cell-based; conditions: for CD3ζ in Jurkat cells co-cultured with PM stimulated with IL-4+IL-13: NOHA 100 μM, Nor-NOHA 50 μM, L-Arg 2 mM, L-NIL 5 μg/ml, catalase 200 U/ml, L-NMMA, L-NNA, L-NAME 1 mM
Protocol: as §1
Flow cytometry analysis was performed as previously described. Taheri, F., J. B. Ochoa, Z. Faghiri, K. Culotta, H. J. Park, M. S. Lan, A. H. Zea, and A. C. Ochoa. 2001. L-Arginine regulates the expression of the T-cell receptor zeta chain (CD3zeta) in Jurkat cells. Clin Cancer Res 7:958s-965s. Briefly, 5×10^5 Jurkat cells or T lymphocytes were washed once with Dulbecco phosphate-buffered saline 1× (D-PBS) and resuspended in 200 μL of D-PBS containing 1 μg of anti-CD3ε or isotype control. Cells were incubated for 15 min at 4° C., washed with D-PBS and resuspended in 200 μl D-PBS containing 500 μg/ml of digitonin plus 1 μg of anti-CD3ζ or 1 μg of isotypic control. Cells were incubated for 8 minutes after which they were washed and resuspended in 400 μl of D-PBS. Fluorescence acquisition and analysis were done using a Coulter-EPICS XL flow cytometer (Beckman-Coulter) with a 488 nm argon laser. The data were expressed as mean channel fluorescence intensity (MFI).

H. pylori arginase = conditions: McGee, manuscript in preparation; cited from earlier work
ASE = ASE activity assay (L-ornithine production) in PM lysates; format: biochemical, mice; conditions: NOHA 100 μM, Nor-NOHA 50 μM
Protocol: Cell lysates from PM stimulated with IL-4+IL-13 or IFN-γ were tested for ASE activity by measuring the production of L-ornithine. In brief, cell lysates from PM stimulated with IL-4+IL-13 or IFN-γ in the presence or absence of NOHA or Nor-NOHA were added to 50 μl of Tris-HCl (50 mM; pH 7.5) containing 10 mM MnCl2. This mixture was heated at 55-60° C. for 10 min to activate ASE. The hydrolysis reaction from L-Arg to L-ornithine was identified by a colorimetric assay after the addition of ninhydrin solution and incubation at 37° C. for 1 h.

[4] = PM stimulated with IL-4 + IL-13

Row | Compound | Jurkat cell proliferation in the presence of H. pylori sonicate (Jurkat cells [1]) | extra-cellular L-Arg levels (mean of three experiments) ([2]; Non-stimulated PM) [µM] | extra-cellular L-Arg levels (mean of three experiments) [2, 4] [µM] | rapid decrease in the extra-cellular levels of L-Arg [2] | Km (CAT-3) [µM] | re-expression of CD3ζ on addition after 24 hours of co-culture (Jurkat cells [3]; 2 mM added, CD3ζ tested 24 hours later) | CD3ζ in Jurkat cells co-cultured with PM stimulated with IL-4+IL-13 (Jurkat cells [3]) | inhibition of H. pylori arginase (H. pylori arginase) | intracellular ASE activity (ASE)
1 | N=C(N)NCCC[C@H](N)C(=O)O [L-arginine] | prevented a decrease in cell proliferation | 1267 | 59.8 | partially blocked the rapid decrease | 100 | induced the re-expression of CD3ζ | prevented the decrease of CD3ζ | – | –
2 | NC(=NCCC[C@H](N)C(=O)O)NO [NOHA, NG-hydroxy-L-arginine] | prevented the decrease in Jurkat cell proliferation | 101.6 | 75.6 | partially blocked the rapid decrease | – | – | prevented the decrease of CD3ζ | only partially inhibit H. pylori arginase | blocked intracellular ASE activity
